Assay results: patent US20140364359A1, “COMPOSITIONS AND METHODS FOR TREATING CANCER AND INFLAMMATION-RELATED DIESEASES AND CONDITIONS” (priority 2012, published 2014)
“Also recorded” adds a separate entry of the source. Read-outs that look alike come from different tables or passages of the source.

Experiments:
Cat B = Cat B (Homo sapiens, UniProt P07858); conditions: cited from earlier work
Metastases = experiment: Percent inhibition of growth relative to controls, metastases (Table 4); type: in vivo
[1] = for peripheral blood parameters (RBC, lymphocytes) versus control: D16, D24, D32 tail vein blood; for liver and kidney function (ALT, AST, BUN, Cr) versus control: D40 serum, 4 major parameters; for body weight: ADM 2.0 mg/kg, PADM 7.2 mg/kg i.p x8 (FIG. 3)
Procedure: After 3 days of adaptation, the animals were used for in vivo study, and the protocols were approved by the Animal Care Committee of Wuhan University.
SGC-7901 cells (5×10^6/0.2 ml) were subcutaneously inoculated into the back of nude mice (n=4) as donor tumors, and cells (1×10^7/0.4 ml) were i.p inoculated into the peritoneal cavity of nude mice (n=2). After 50 days, tumor nodules and ascites were obtained and tumor tissue homogenate was re-suspended in ascites at a density of 1×10^7/ml (ascites were used as condition medium). These cell suspensions were injected i.p into 29 nude mice, 0.2 ml containing 5×10^6 cells for each animal, on day 0 (D0). On D8, all of the mice were randomized into 3 groups: control group (n=9), ADM group (n=10) and PADM group (n=10). […] D40 was set as the end point of this study. On D16, D24 and D32, 80 μl of blood was obtained from tail veins, anticoagulated by EDTA, and analyzed by Sysmex KX-21 automated hematology analyzer (Sysmex, Kobe, Japan). On D40, all mice were sacrificed, blood was obtained, coagulated and centrifugated at 4° C.×3000 rpm for 10 min to separate serum for biochemical analysis, including ALT (alanine aminotransferase), AST (aspartate aminotransferase), BUN (blood urea nitrogen), Cr (creatinine), CK (creatine kinase), CK-MB (creatine kinase-MB), LDH (lactate dehydrogenase) by Aeroset Clinical Chemistry Analyzer (Abbott Laboratories, IL, USA).
At autopsy, major organs including the heart, liver, kidneys, spleen and lungs were examined for any toxic changes. Any organs involved by the tumor and the tumor nodules were formalin-fixed, paraffin-embedded, and cut at 5-μm thickness, for histopathological study after hematoxylin and eosin (H&E) staining

SGC-7901 cells [2] = experiment: Flow cytometric analysis of cell cycle; type: cell-based, Human; conditions: SGC-7901, 24 h, ADM 0.25 μg/ml, PADM 0.45 μg/ml
Procedure: (§1) Human gastric adenocarcinoma cell line SGC-7901 which had been widely used for gastric cancer research was maintained in Hubei Key Laboratory of Tumor Biological Behaviors. Cells were cultured in RPMI-1640 medium supplemented with 10% standard newborn bovine serum in the 5% CO2, saturated humidity, 37° C. incubator (Shel Lab, OR, USA). The culture medium was changed every 2 days.
To study the effect of PADM on cell cycle, flow cytometric analysis was performed. SGC-7901 cells were planted in 6-well culture plates (Corning, N.Y., USA), at a density of 2×10^6/well. After 48 h, the cells were divided into 3 groups and treated for 24 h with normal saline (25 μl), ADM (0.25 μg/ml), and PADM (0.45 μg/ml). The cells in each group were harvested to make single-cell suspension, centrifuged at 4° C.×1000 rpm for 10 min, washed twice with phosphate buffered saline (pH=7.4), fixed and stained with PI kit. Cell cycle analysis was performed by flow cytometry with FC 500 (Beckman Coulter, Calif., USA).

[3] = 37° C., over 6-7 h; cited from earlier work
Pilot dosage study = conditions: nude mice
Primary tumor = experiment: Percent inhibition of growth relative to controls, primary tumor (Table 4); type: in vivo
[4] = tested on: SGC-7901 peritoneal carcinomatosis; experiment: GC peritoneal carcinomatosis model, therapeutic study; type: in vivo, nude mice; conditions: ADM 2.0 mg/kg; for lung metastasis / median (range) ePCI score: D40; for lung metastasis / relative ePCI reduction: PADM 7.2 mg/kg i.p x8; for median (range) ePCI score: i.p x8 (D8-D36), PADM 7.2 mg/kg; for relative ePCI reduction: compared with control
[5] = mice, cited from earlier work
SGC-7901 cells [6] = experiment: Cell growth assay; type: cell-based; conditions: Homo sapiens, read-out: inhibition rate of cell growth
Procedure: as §1
SGC-7901 cells at exponential growth phase were planted in 24-well culture plates (Corning, N.Y., USA) at a density of 1×10^5/well. After 48 h, cell numbers were determined by direct cell counting of 3 wells, which was designated as cell number of day 0 (D0). Then the cells were divided into 6 groups, treated with normal saline (100 μl), ADM (0.5 μg/ml), ADM (1.0 μg/ml), PADM (0.9 μg/ml), PADM (1.8 μg/ml), and PADM (3.6 μg/ml), respectively, 3 wells per group. Cells in each group were harvested and counted daily from D2 to D7. The cell growth curve was plotted.

[7] = Metastases to Mediastinal lymph nodes

COc1cccc2c1C(=O)c1c(O)c3c(c(O)c1C2=O)C[C@@](O)(C(=O)CO)C[C@@H]3O[C@H]1C[C@H](NC(=O)OCc2ccc(NC(=O)[C@H](CCCCN)NC(=O)[C@H](Cc3ccccc3)NC(C)=O)cc2)[C@H](O)[C@H](C)O1 [PADM, Ac-Phe-Lys-PABC-ADM]
cleavage in Cat B-rich medium (Cat B): rapidly cleaved
Ratio, PADM/Dox (Metastases; Metastases to Diaphragm): 2.3
Ratio, PADM/Dox (Metastases; Metastases to Lung): 1.9
Ratio, PADM/Dox (Metastases; [7]): 5.7
Ratio, PADM/Dox (Metastases; Metastases to Mesenteric): 3.8
Ratio, PADM/Dox (Metastases; Metastases to Retroperitoneal): 1.2
peripheral blood parameters (RBC, lymphocytes) versus control [1]: no differences
animals with significant myocardium toxicities (histopathology) ([1]; D40, group n=10): 4 animals
liver and kidney function (ALT, AST, BUN, Cr) versus control [1]: only ALT levels achieved statistical significance
body weight ([1]; nude mice PC model): 23.61 ± 0.80 g
effect on cell cycle / apoptosis (SGC-7901 cells [2]): did not show significant apoptosis
changes in human plasma (stability) [3]: no changes were observed; also recorded: stable in human plasma
histopathological study of major organs (Pilot dosage study; after 4 administrations): No obvious damages
body weight changes (Pilot dosage study; after the fourth administration, total 96.0 mg/kg group A, 144.0 mg/kg group B): persistent body weight decreases
body weight changes (Pilot dosage study; i.p, first 3 injections, groups A and B): no obvious changes in body weight
ceiling dosage set for formal in vivo test (Pilot dosage study; total dosage): below 96.0 mg/kg
Ratio, PADM/Dox (Primary tumor): 1.05
lung metastasis [4]: no lung metastasis
median (range) ePCI score [4]: 1 (1-4)
relative ePCI reduction [4]: 83.3%

COc1cccc2c1C(=O)c1c(O)c3c(c(O)c1C2=O)C[C@@](O)(C(=O)CO)C[C@@H]3O[C@H]1C[C@H](N)[C@H](O)[C@H](C)O1 [ADM, doxorubicin, reference compound]
Percent inhibition of growth relative to controls (Metastases; Metastases to Diaphragm): 19%
Percent inhibition of growth relative to controls (Metastases; Metastases to Lung): 36%
Percent inhibition of growth relative to controls (Metastases; [7]): 9.1%
Percent inhibition of growth relative to controls (Metastases; Metastases to Mesenteric): 9.1%
Percent inhibition of growth relative to controls (Metastases; Metastases to Retroperitoneal): 65%
peripheral blood parameters (RBC, lymphocytes) versus control [1]: significantly lower RBC counts
nude mice died due to severe toxicity ([1]; D36, group n=10): 1
liver and kidney function (ALT, AST, BUN, Cr) versus control [1]: 3 out of the 4 parameters achieved statistical significance
animals with significant myocardium toxicities (histopathology) ([1]; male, BALB/c nude, mouse, in vivo): 7 animals
body weight course versus control ([1]; nude mice PC model, whole study period to D40): significant decrease on D24
body weight ([1]; nude mice PC model): 18.40 ± 2.97 g
effect on cell cycle / apoptosis (SGC-7901 cells [2]): a prominent apoptosis peak was observed
Percent inhibition of growth relative to controls (Primary tumor): 42%
lung metastasis [4]: no lung metastasis
median (range) ePCI score [4]: 1.5 (0-6)
relative ePCI reduction [4]: 75%
LD50 ([5]; given intraperitoneally (i.p)): 13.2 mg/kg
LD50 ([5]; given intravenously): 12.0 mg/kg
inhibition at 0.5 µg/mL (SGC-7901 cells [6]; SGC-7901, D7, 0.5 μg/ml): 80.2%
inhibition at 1 µg/mL (SGC-7901 cells [6]; SGC-7901, D7, 1.0 μg/ml): 96.3%
